Laboratory results published in patent US20230338378A1, “Methods of Administering Myosin Inhibitors” (MYOKARDIA, INC., priority 2022, published 2023).
Where two headings read alike, the source gives them in different places.

Columns and labels:
[1] = Clinical pharmacokinetics of mavacamten; assay type: in vivo, human; settings: for half-life: plasma, read-out: terminal half-life (converted)
CYP2C19 = CYP2C19 (Homo sapiens, UniProt P33261); assay: Metabolism through CYP enzymes
CYP3A4 [2] = target: T1, CYP3A4 (Homo sapiens, UniProt P08684); assay: Metabolism through CYP enzymes
[3] = Excretion after a single 25 mg dose of radiolabeled mavacamten; assay type: in vivo; settings: single 25 mg dose of radiolabeled mavacamten
Experimental: Following a single 25 mg dose of radiolabeled mavacamten, 7% of the dose was recovered in feces (1% unchanged) and 85% in urine (3% unchanged).

CYP1A2 = CYP1A2 (Homo sapiens, UniProt P05177); assay: In vitro CYP inhibition; assay type: in vitro ADME; settings: In Vitro Studies
CYP2B6 [4] = target: CYP2B6 (Homo sapiens, UniProt P20813); assay: In vitro CYP inhibition; assay type: in vitro ADME; settings: In Vitro Studies
CYP3A4 [5] = target: T1, CYP3A4; assay: In vitro CYP inhibition; assay type: in vitro ADME; settings: In Vitro Studies; clinically relevant concentrations
CYP2B6 [6] = assay: In vitro CYP induction; assay type: in vitro ADME; settings: In Vitro Studies
male or female rats = assay: Reproductive toxicity studies (mating and fertility); assay type: in vivo, rat
dogs = assay: Oral animal toxicology at multiple dose levels; assay type: in vivo
Experimental: (§1) The safety of mavacamten has been evaluated in rats and dogs at multiple dose levels (0.06 to 10 mg/kg/day) orally. […] Plasma exposures (AUC) at the NOAEL in rats and dogs were 0.1 and 0.3 times, respectively, human exposure (AUC) at the MRHD.

rats = assay: Oral animal toxicology at multiple dose levels; assay type: in vivo
Experimental: as §1

healthy subjects = assay: Doses of up to 25 mg for up to 25 days in healthy subjects; assay type: in vivo; settings: 25 mg dose level for up to 25 days
Experimental: Human experience of overdose with MAVACAMTEN is limited. MAVACAMTEN has been given as a single dose of up to 144 mg in patients with HCM. […] In healthy subjects, doses of up to 25 mg have been administered for up to 25 days, with 3 of 8 participants treated at the 25 mg dose level experiencing 20% or greater reductions in LVEF. An infant death was reported after accidental ingestion of three 15 mg capsules.

[7] = tested on: adults with symptomatic NYHA class II and III obstructive HCM; settings: phase 3 EXPLORER-HCM, oHCM patient population (Olivotto et al., 2020); cited from earlier work
CYP3A4 [8] = target: T1, CYP3A4; assay: Concomitant use with moderate CYP3A4 inhibitor verapamil; assay type: in vivo; parameters: Mavacamten is hepatically metabolized predominantly via CYP2C19 (74%), CYP3A4 (18%) and CYP2C9 (8%); from tissue; host or cells: liver of human subjects in vivo, or a Simcyp virtual population; settings: mavacamten 25 mg with verapamil sustained release 240 mg; CYP2C19 IMs and NMs

T1 sequence (P08684 whole entry): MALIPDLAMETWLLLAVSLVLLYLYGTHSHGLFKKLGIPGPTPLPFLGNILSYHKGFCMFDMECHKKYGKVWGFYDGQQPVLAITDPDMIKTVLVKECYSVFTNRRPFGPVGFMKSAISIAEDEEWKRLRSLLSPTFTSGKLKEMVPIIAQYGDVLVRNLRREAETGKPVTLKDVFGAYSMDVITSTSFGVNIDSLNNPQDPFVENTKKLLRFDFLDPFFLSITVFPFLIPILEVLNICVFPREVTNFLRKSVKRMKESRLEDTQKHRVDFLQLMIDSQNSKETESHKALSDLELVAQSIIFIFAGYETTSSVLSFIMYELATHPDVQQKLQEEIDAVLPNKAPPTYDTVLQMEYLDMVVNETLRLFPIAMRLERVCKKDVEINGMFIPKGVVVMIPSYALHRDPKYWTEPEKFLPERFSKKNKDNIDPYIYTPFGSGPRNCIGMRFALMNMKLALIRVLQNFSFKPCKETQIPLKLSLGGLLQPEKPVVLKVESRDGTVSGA
Sequence of CYP2B6 (Homo sapiens, UniProt P20813) (P20813 whole entry): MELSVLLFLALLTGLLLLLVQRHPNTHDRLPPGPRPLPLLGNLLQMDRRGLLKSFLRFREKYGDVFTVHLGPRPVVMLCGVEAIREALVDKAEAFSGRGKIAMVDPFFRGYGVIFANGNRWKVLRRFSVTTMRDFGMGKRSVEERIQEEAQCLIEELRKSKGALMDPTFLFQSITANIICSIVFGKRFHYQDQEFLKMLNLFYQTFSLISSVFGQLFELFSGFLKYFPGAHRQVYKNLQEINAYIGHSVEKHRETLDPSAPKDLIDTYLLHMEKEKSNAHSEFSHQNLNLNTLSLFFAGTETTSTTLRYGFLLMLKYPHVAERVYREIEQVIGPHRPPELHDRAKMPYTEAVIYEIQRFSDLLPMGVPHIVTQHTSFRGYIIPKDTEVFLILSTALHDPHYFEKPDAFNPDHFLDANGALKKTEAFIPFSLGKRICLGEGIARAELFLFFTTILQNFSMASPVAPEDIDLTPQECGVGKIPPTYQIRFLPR
Sequence of CYP1A2 (P05177 whole entry): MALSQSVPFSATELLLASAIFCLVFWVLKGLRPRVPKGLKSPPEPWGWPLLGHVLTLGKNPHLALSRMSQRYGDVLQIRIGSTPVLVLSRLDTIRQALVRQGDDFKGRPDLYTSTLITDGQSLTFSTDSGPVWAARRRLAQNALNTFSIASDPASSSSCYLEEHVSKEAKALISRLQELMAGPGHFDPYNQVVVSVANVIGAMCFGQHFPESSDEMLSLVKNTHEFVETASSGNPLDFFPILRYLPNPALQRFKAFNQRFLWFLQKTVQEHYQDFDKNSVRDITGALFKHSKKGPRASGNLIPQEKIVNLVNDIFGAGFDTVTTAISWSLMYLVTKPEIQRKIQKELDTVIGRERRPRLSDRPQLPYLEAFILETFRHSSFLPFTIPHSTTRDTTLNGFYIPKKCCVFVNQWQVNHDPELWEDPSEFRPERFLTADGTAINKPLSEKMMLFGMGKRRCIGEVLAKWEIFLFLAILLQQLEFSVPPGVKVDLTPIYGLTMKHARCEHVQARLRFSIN
Sequence of CYP2C19 (P33261 whole entry): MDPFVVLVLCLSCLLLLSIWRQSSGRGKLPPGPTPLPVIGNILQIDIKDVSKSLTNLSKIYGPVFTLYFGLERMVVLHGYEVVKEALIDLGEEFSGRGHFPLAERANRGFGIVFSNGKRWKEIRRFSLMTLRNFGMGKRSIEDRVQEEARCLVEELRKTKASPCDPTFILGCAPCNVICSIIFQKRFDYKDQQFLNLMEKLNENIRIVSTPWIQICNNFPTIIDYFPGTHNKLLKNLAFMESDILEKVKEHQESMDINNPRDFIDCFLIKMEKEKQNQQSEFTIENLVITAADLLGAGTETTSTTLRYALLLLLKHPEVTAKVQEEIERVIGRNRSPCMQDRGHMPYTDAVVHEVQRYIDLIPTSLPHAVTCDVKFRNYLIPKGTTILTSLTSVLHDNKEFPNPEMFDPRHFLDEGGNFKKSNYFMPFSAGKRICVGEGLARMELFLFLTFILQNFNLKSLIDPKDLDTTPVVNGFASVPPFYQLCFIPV

Q: What does the source list for `CC(C)n1c(=O)cc(N[C@@H](C)c2ccccc2)[nH]c1=O` [mavacamten, (S)-3-Isopropyl-6-((1-phenylethyl)amino)pyrimidine-2,4(1H,3H)-dione]?
A: accumulation ratio for AUC ([1]; CYP2C19 NMs): about 7 fold; accumulation ratio for Cmax ([1]; CYP2C19 NMs): about 2 fold; pharmacokinetics with a high fat meal ([1]; Effect of Food): No clinically significant differences; pharmacokinetics by age (18-82 years), sex, race, ethnicity, or mild to moderate renal impairment ([1]; Specific Populations): No clinically significant differences; Tmax ([1]; human, in vivo, oral, read-out: time to maximum concentration (Tmax)): 1 h; bioavailability ([1]; human, in vivo, po, read-out: estimated oral bioavailability): ≥ 85%; half-life ([1]; human, oral, CYP2C19 normal metabolizers (NMs)): 144 to 216 h; half-life ([1]; human, oral, CYP2C19 poor metabolizers (PMs)): 552 h; exposure vs dose ([1]; multiple once-daily doses of 1 mg to 15 mg): increases generally dose proportionally; higher exposures in patients with HCM compared to healthy subjects ([1]; same dose level): 170%; peak-to-trough plasma concentration ratio ([1]; steady-state, once daily dosing): approximately 1.5; metabolized through CYP2C19 (CYP2C19): 74%; metabolized through CYP3A4 (CYP3A4 [2]): 18%; dose recovered in feces [3]: 7%; dose recovered in feces unchanged [3]: 1%; dose recovered in urine [3]: 85%; dose recovered in urine unchanged [3]: 3%; inhibition of CYP1A2 (CYP1A2): does not inhibit; inhibition of CYP2B6 (CYP2B6 [4]): does not inhibit; inhibition of CYP3A4 (CYP3A4 [5]): not an inhibitor; induction of CYP2B6 (CYP2B6 [6]): inducer; effects on the viability and fertility of offspring (male or female rats; dams dosed up to 1.5 mg/kg/day): no evidence of effects; effects on mating and fertility (male or female rats; male or female rats, doses up to 1.2 mg/kg/day): no evidence of effects; Plasma exposure (AUC) at the highest dose tested (male or female rats; rats): the same as in humans at the MRHD; Other findings (dogs): QTc prolongation; Plasma exposure (AUC) at the NOAEL vs human exposure (AUC) at the MRHD (dogs): 0.3 times; Noted toxicities (dogs; 0.06 to 10 mg/kg/day orally): echocardiographic findings, reduction in systolic function, cardiac dilation, and death; Other findings (rats): cardiac osseous metaplasia; Plasma exposure (AUC) at the NOAEL vs human exposure (AUC) at the MRHD (rats): 0.1 times; heart weights (rats): increased heart weights; Noted toxicities (rats; 0.06 to 10 mg/kg/day orally): echocardiographic findings, reduction in systolic function, cardiac dilation, and death; participants experiencing 20% or greater reductions in LVEF (healthy subjects): 3 of 8; LVOT gradients, symptoms, exercise performance and health status [7]: effective in reducing LVOT gradients and improving symptoms, exercise performance and health status; mavacamten AUCinf increase (CYP3A4 [8]): 15%; mavacamten Cmax increase (CYP3A4 [8]): 52%
